The values that follow come from ChEMBL document CHEMBL3390834, “Development of second generation epigenetic agents” (Medchemcomm, 2012).

Assay [1] concerns the target T1, Histone deacetylase 2 (Homo sapiens, UniProt Q92769). The experiment in a line: Inhibition of HDAC-2 (unknown origin) using (FAM)-labeled acetylated peptide as substrate after 17 hrs by fluorescence assay.
The target in assay [2] is Histone deacetylase 1 (Homo sapiens, UniProt Q13547).
Description: Inhibition of HDAC-1 (unknown origin) using (FAM)-labeled acetylated peptide as substrate after 17 hrs by fluorescence assay
Assay [3] deals with Histone deacetylase 3 (Homo sapiens, UniProt O15379). The experiment in a line: Inhibition of HDAC-3 (unknown origin) using (FAM)-labeled acetylated peptide as substrate after 17 hrs by fluorescence assay.
Histone deacetylase 3, sequence (O15379 whole entry): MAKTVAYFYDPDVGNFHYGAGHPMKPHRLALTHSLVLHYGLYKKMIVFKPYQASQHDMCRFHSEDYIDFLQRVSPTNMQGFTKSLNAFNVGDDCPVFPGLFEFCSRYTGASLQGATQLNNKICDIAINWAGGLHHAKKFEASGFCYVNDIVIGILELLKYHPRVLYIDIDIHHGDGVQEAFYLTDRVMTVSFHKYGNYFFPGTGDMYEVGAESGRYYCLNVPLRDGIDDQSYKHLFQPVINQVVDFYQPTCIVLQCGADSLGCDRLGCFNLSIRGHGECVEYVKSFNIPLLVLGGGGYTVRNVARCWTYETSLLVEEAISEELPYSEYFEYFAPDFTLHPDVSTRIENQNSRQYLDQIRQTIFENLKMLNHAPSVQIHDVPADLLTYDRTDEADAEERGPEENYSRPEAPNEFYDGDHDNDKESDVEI
The target in assay [4] is Histone deacetylase. The experiment in a line: Inhibition of HDAC in human HeLa cells assessed as alpha-tubulin acetylation after 7 hrs. In kind it is cell-based.
Assay [5] concerns the target Histone deacetylase. In words: Inhibition of HDAC in human HeLa cells assessed as histone H3 hyperacetylation after 7 hrs. In kind it is cell-based.
The target of assay [6] is Histone deacetylase. The experiment in a line: Inhibition of HDAC isolated from human HeLa cell nuclear extracts using Fluor de Lys as substrate after 30 mins by fluorescence assay. Format: protein assay.
The target in assay [7] is T1, Histone deacetylase 2. In words: Inhibition of recombinant human HDAC-2 expressed in baculovirus infected insect Sf9 cells using Fluor de Lys as substrate preincubated for 2 hrs followed by substrate addition measured after 10 mins by fluorescence assay.

T1 sequence (Q92769 whole entry): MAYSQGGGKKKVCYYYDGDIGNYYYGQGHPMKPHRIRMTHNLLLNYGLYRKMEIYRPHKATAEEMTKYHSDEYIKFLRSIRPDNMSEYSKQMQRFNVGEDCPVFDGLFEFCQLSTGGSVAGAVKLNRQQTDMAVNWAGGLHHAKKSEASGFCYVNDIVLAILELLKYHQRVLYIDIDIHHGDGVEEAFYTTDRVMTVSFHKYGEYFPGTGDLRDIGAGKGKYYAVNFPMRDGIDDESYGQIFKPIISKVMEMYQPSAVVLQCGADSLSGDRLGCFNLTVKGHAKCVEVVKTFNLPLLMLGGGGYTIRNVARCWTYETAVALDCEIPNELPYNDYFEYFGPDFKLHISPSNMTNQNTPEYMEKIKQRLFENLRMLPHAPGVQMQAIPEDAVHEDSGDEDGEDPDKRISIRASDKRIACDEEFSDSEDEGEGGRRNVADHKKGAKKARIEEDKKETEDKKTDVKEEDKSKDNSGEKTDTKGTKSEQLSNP
Histone deacetylase 1, sequence (Q13547 whole entry): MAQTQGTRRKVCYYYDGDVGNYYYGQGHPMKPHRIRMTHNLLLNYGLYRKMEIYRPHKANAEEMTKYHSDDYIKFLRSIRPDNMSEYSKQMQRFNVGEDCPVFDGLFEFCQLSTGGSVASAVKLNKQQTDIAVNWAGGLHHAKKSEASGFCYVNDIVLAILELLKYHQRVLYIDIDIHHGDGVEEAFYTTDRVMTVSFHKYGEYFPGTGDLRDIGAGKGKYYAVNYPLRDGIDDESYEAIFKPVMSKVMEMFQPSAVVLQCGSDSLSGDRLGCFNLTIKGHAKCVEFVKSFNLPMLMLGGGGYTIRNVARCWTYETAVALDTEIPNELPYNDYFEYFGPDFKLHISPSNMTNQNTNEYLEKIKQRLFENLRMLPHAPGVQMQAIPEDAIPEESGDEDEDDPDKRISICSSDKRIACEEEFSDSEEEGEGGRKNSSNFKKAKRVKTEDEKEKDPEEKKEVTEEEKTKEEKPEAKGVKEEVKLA

Usually IC50 stands for the concentration that gives 50% inhibition. A lower IC50 goes with greater potency. Turning to `Nc1ccccc1NC(=O)CCCCCCC(=O)Nc1ccccc1N`, the IC50 in assay [1] turned out to be 4800 nM; in assay [2] it was 14600 nM; in assay [3] it was 988 nM.

As usually defined, the EC50 is the midpoint of the concentration-response curve. For `CC(=O)SCC(=O)c1ccc(NS(=O)(=O)c2ccc(OCCCN(C)C)cc2)nc1`, the EC50 in assay [4] came out at 325 nM; in assay [5], 25 nM. In assay [6], this molecule returned an IC50 of 45 nM.

As a reminder, the Ki is a measure of affinity in units of concentration, obtained from inhibition or displacement. Consider `CCCCc1nc2cc(/C=C/C(=O)NO)ccc2n1CCN(CC)CC` [PRACINOSTAT], for which the Ki in assay [7] came to 16 nM.
